From PMC3016413, “An Antiretroviral/Zinc Combination Gel Provides 24 Hours of Complete Protection against Vaginal SHIV Infection in Macaques” (PLoS ONE, 2011)
Read-outs that look alike come from different tables or passages of the source.

Tests used:
[1] = set-up: method as in PMID 18086845; conditions: 8 h after daily treatment for 7 days with 273 µM TMC120; cited from earlier work
[2] = system: HIV-1 L100I/K103N double mutant; set-up: method as in Fernández-Romero unpublished; conditions: ref Fernández-Romero unpublished; read-out: IC50 against L100I/K103N double mutant; cited from earlier work
[3] = rat, in vivo; cited from earlier work
HIV-1 = conditions: in vitro; ref Fernández-Romero unpublished; cited from earlier work
HIV-1 Y181C mutant = system: HIV-1 Y181C mutant; set-up: method as in Fernández-Romero unpublished; conditions: ref Fernández-Romero unpublished; read-out: IC50 against Y181C mutant; cited from earlier work
R5 and X4 viruses [4] = system: R5 and X4 viruses; set-up: method as in PMID 16924181, PMID 18776937, PMID 7545297; conditions: read-out: antiviral IC50; cited from earlier work
HIV-1 wild type = system: HIV-1 wild type; set-up: method as in Fernández-Romero unpublished; conditions: ref Fernández-Romero unpublished; read-out: IC50 against wild type; cited from earlier work
R5 and X4 viruses [5] = system: R5 and X4 viruses; set-up: method as in PMID 16924181, PMID 18776937, PMID 7545297; conditions: potentially virucidal; cited from earlier work
[6] = Vaginal pH and cytokines/chemokines in vaginal fluids after repeated gel; format: in vivo, Rhesus macaques (Macaca mulatta)
Procedure: PBMCs were isolated from EDTA blood using Ficoll-Hypaque density gradient centrifugation (Amersham Pharmacia Biotech, Uppsala, Sweden) as already described. RPMI 1640 (Invitrogen/GIBCO, Carlsbad, CA, USA) culture medium containing 2 mM L-glutamine (Invitrogen/GIBCO) 10 mM HEPES (N-2-hydroxyethylpiperazine-N'-2-ethanesulfonic acid) (Invitrogen/GIBCO), 50 µM 2-mercaptoethanol (Sigma) penicillin (100 U/ml) and streptomycin (100 µg/ml) (Invitrogen/GIBCO) and 1% heparinized human plasma (Innovative Research, Southfield, MI) was used for final re-suspension of PBMCs. Medium with 10% HI-FBS (heat inactivated fetal bovine serum) (Invitrogen/GIBCO) instead of 1% human plasma was used for the PBMC-174xCEM co-cultures. DNA was isolated from lymph nodes as described with the DNeasy® Blood & Tissue Kit (Qiagen Sciences, MD USA). […] Vaginal pH was determined by inserting pH-indicator strip (EMO Chemical Inc., Gibbstown, NJ) into the vaginal vault for 5 minutes to saturate the pH paper with vaginal fluid.
SIV-specific IFN-γ T cell responses were monitored by ELISPOT using AT-2 SIV (versus the no virus microvesicle controls) as the stimuli and SIV-specific antibodies by ELISA [36]. […] Cell-free vaginal fluids were analyzed for chemokine and cytokine expression using the monkey-reactive Beadlyte human 14-plex Detection System according to the manufacturer's instructions (Invitrogen). […]

Cc1cc(C)c(Nc2ccnc(Nc3ccc(C#N)cc3)n2)c(C)c1 [TMC120]
level of TMC120 associated with the cervical tissues [1]: 3 to 80 pg/mg

CCC(=O)c1ccc(F)c([C@@H]2C[C@@H]2NC(=O)Nc2ccc(C#N)cn2)c1O [MIV-150]
IC50 [2]: 900 nM
time to becoming undetectable in plasma (short plasma half-life) [3]: ≤ 24 h
memory effect: time exposed cells remain resistant to infection (HIV-1): up to 5 d
IC50 (HIV-1 Y181C mutant): 0.2 nM
IC50 (R5 and X4 viruses [4]): < 1 nM
IC50 (HIV-1 wild type): 0.7 nM
IC50 (R5 and X4 viruses [5]): 400 nM
impact on vaginal pH ([6]; before, during and 8 or 24 h after 2 week gel administration): no impact
impact on CXCL8 and CCL2 levels in vaginal fluids ([6]; relative to carrageenan, 2 week daily gel administration): no further impact

O=C1Nc2ccc(Cl)cc2[C@@](C#CC2CC2)(C(F)(F)F)O1 [Efavirenz, reference compound]
IC50 [2]: > 10000 nM
IC50 (HIV-1 wild type): 0.6 nM
